# Test results published in paper PMC9138505, “Small Molecule 20S Proteasome Enhancer Regulates MYC Protein Stability and Exhibits Antitumor Activity in Multiple Myeloma” (Biomedicines, 2022).
# Where “and” joins values, the source holds several entries; their conditions need not be identical. Identical values can stand only once.
# Key:
# [1] = test system: proteasome, CT-L substrate Suc-LLVY-AMC, canine PBMC lysate; assay: Proteasome activity in canine PBMC lysate (target engagement); format: in vivo; conditions: treated canines, 1920 mg BID
# Protocol: Canine blood samples obtained in BD Vacutainer CPT mononuclear cell preparation tubes containing sodium citrate were used to isolate PBMCs. For PBMC isolation, sample tubes were inverted five times and equilibrated for the centrifuge with sterile PBS buffer. Tubes were centrifuged at 1800× g with the acceleration set at 5 and a break set to 0 at room temperature for 30 min. Half of the plasma layer was discarded. Using a sterile Pasteur pipette, the buffy coat was collected and put into a 15 mL conical tube and sterile PBS buffer was added to 10 mL. The conical tubes were centrifuged at 300× g for 10 min and the supernatant was removed. Cells were resuspended in 150 µL of lysis buffer (50 mM Tris-HCl, 2 mM Na2ATP, 5 mM MgCl2, 0.5 mM EDTA, 10% glycerol) and lysed by vortex. Samples were centrifuged for 20 min at 14,000× g. The total protein concentration of the supernatant was determined using bicinchoninic acid assay (BCA assay), and the samples were normalized to 1 mg/mL. Samples were diluted to 0.036 µg/µL in assay buffer (38 mM Tris, 100 mM NaCl, pH 7.8) and 140 µL of the diluted sample was added to three wells of a black, clear-bottom 96-well plate. Substrate stock solution (10 µL of 375 µM Suc-LLVY-AMC in assay buffer) was added to each well. Fluorescence was measured and kinetic readings were taken every 5 min at 37 °C, at 380/440 nm for 1 h.
# [2] = test system: c-MYC; assay: c-MYC degradation ELISA in H929 cells; format: cell-based, human; conditions: various concentrations, 4 h
# Protocol: ELISA: c-MYC degradation in L363 and H929 cells. L363 cells were grown in T-25 flasks in RPMI-1640 medium supplemented with 15% heat-inactivated fetal bovine serum (FBS) and 1% penicillin/streptomycin at 37 °C and 5% CO2. H929 cells were grown in T-25 flasks in RPMI-1640 medium supplemented with 10% FBS, 0.05 mM 2-mercaptoethanol, and 1% penicillin/streptomycin. Cells were treated with DMSO, TCH-165, or bortezomib (BTZ) at the indicated concentrations for 4 h (0.1% final DMSO concentration). Following the 4-hour treatment, cells were pelleted, washed with chilled PBS buffer, and resuspended in chilled lysis buffer (10 mM Tris, 100 mM NaCl, 1 mM EDTA, 1 mM EGTA, 1 mM NaF, 20 mM Na4P2O7, 2 mM Na3VO4, 1% Triton X-100, 10% glycerol, 0.1% SDS, and 0.5% deoxycholate; pH 7.4) supplemented with Complete Mini Protease Inhibitor Cocktail (Sigma Aldrich). The lysate was clarified by centrifugation at 5000 rpm (4 °C) for 15 min. Total protein of the lysate was quantified by bicinchoninic acid assay (BCA assay, Thermofisher Scientific; Waltham, MA, USA). and normalized to 1.5 mg/mL total protein. The supplied protocol for the human c-MYC (Total) ELISA Kit (Invitrogen; Waltham, MA, USA) was used to determine the total c-MYC concentration of the lysates. Prior to loading lysate into ELISA plate wells, lysate (5 µL) was diluted into 45 µL of supplied standard diluent buffer.
structure (smiles),measurement,setting,value
CCOC(=O)[C@]1(c2ccccc2)N=C(c2ccc(OC)cc2)N(Cc2ccccc2)[C@@H]1c1ccc(NCc2ccccc2)cc1 [TCH-165],drug concentration by mass spectrometry,[1],1400 nM and 1100 nM
same,MYC clearance (percent MYC remaining),[2],induced clearance of MYC
